# Assay results from US20020137929A1, “1 - (3-heterocyclylphenyl) isothiourea, -isourea, -guanidine and -amidine herbicidal agents” (Intellectual Property Department, BASF Aktiengesellschaft, priority 1998, published 2002).
# How the values were obtained:
# CASOB (Sicklepod) [1] = test: Postemergence herbicidal evaluation; format: in vivo, Cassia obtusifolia; details: for CASOB herbicidal rating: postemergence
# Procedure, shortened: (§1)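 Rate range approx. 0.0156–0.500 kg/ha. Foliar application at 40 psi to ~2-week seedlings; surfactant 0.5% TWEEN 20 in 50/50 acetone/water. Evaluation 4–5 wk post-treatment by 0–9 visual injury score, means of replicate tests.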
# [2] = system: SAGPY (Arrowhead (Pygmaea)); test: Preemergence weed control under flooded paddy conditions; format: in vivo, Sagittaria pygmaea; details: rated 3-4 weeks after treatment
# Procedure, shortened: (§2)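 Ratings on a 0-9 visual scale cover stand, vigor, malformation, size, chlorosis and overall appearance relative to a control, taken three to four weeks post-treatment. Application was into flood water over freshly sown silt loam at roughly 0.0313 to 0.500 kg/ha.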
# MOOVA (Monochoria) = test: as above; format: in vivo, Monochoria vaginalis; details: rated 3-4 weeks after treatment
# Procedure, shortened: as §2
# ABUTH (Velvetleaf) = test: Preemergence herbicidal evaluation; format: in vivo, Abutilon theophrasti; details: rated 4-5 weeks after treatment; for ABUTH rating: preemergence, 0-9 scale
# Procedure, shortened: (§3)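 Scores use a 0–9 visual scale covering stand, vigor, malformation, size and chlorosis relative to controls, rated four to five weeks after treatment. Before emergence, soil-planted seeds were sprayed with compound in aqueous acetone at roughly 0.0156–0.500 kg/ha and held in the greenhouse.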
# [3] = system: IPOHE (Morningglory, Ivyleaf); test: Postemergence herbicidal evaluation; format: in vivo, Ipomoea hederacea; details: for IPOHE herbicidal rating: postemergence
# Procedure, shortened: as §1
# ECHCG (Barnyardgrass) = test: Preemergence herbicidal evaluation; format: in vivo, Echinochloa crus-galli; details: rated 4-5 weeks after treatment; for ECHCG rating: preemergence, 0-9 scale
# Procedure, shortened: as §3
# CYPIR (Rice Flatsedge) = test: Postemergence weed control under flooded paddy conditions; format: in vivo, Cyperus iria; details: postemergence weeds
# Procedure, shortened: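 Flood-water application, about 0.0313–0.500 kg/ha a.i. in aqueous/acetone 50/50 v/v; water depth 1.5–3 cm throughout. Weeds 3–5 cm, rice 1.5–2.5 leaf. Greenhouse; 0–9 visual rating vs control at 3–4 wk.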
# [4] = system: TRZAWR (Wheat, Winter, cv Riband); test: Preemergence herbicidal evaluation; format: in vivo, Triticum aestivum; details: rated 4-5 weeks after treatment; for TRZAWR rating: preemergence, 0-9 scale
# Procedure, shortened: as §3
# [5] = system: GLXMAW (Soybean, Williams); test: Preemergence herbicidal evaluation; format: in vivo, Glycine max, (L.) Merr. cv Williams; details: rated 4-5 weeks after treatment; for GLXMAW rating: preemergence, 0-9 scale
# Procedure, shortened: as §3
# ZEAMX (Corn, Field) = test: Preemergence herbicidal evaluation; format: in vivo, Zea mays; details: rated 4-5 weeks after treatment; for ZEAMX rating: preemergence, 0-9 scale
# Procedure, shortened: as §3
# CASOB (Sicklepod) [6] = test: Preemergence herbicidal evaluation; format: in vivo, Cassia obtusifolia; details: rated 4-5 weeks after treatment; for CASOB rating: preemergence, 0-9 scale
# Procedure, shortened: as §3
# AMBEL (Ragweed, Common) = test: Postemergence herbicidal evaluation; format: in vivo, Ambrosia artemisifolia; details: for AMBEL herbicidal rating: postemergence
# Procedure, shortened: as §1
# [7] = system: IPOHE (Morningglory, Ivyleaf); test: Preemergence herbicidal evaluation; format: in vivo, Ipomoea hederacea; details: rated 4-5 weeks after treatment; for IPOHE rating: preemergence, 0-9 scale
# Procedure, shortened: as §3
# GALAP (Galium) = test: Postemergence herbicidal evaluation; format: in vivo, Galium aparine; details: for GALAP herbicidal rating: postemergence
# Procedure, shortened: as §1
smiles,measurement,setting,value
"Cn1c(C(F)(F)F)cc(=O)n(-c2cc(N=C3SCC(=O)N3CC(=O)OC(C)(C)C)c(Cl)cc2F)c1=O [Compound 43, tert-Butyl 2-{{2-chloro-5-[3,6-dihydro-3-methyl-2,6-dioxo-4-(trifluoromethyl)-1(2H)-pyrimidinyl]-4-fluorophenyl}imino}-4-oxo-3-thiazolidineacetate]",Postemergence herbicidal rating CASOB,CASOB (Sicklepod) [1]; Rate 0.0158 kg/ha,9.0
same,Postemergence herbicidal rating CASOB,CASOB (Sicklepod) [1]; Rate 0.0315 kg/ha,9.0
same,Postemergence herbicidal rating CASOB,CASOB (Sicklepod) [1]; Rate 0.0630 kg/ha,9.0
same,Herbicidal rating SAGPY,[2]; 0.0313 kg/ha,7.0
same,Herbicidal rating SAGPY,[2]; 0.0625 kg/ha,7.0
same,Herbicidal rating SAGPY,[2]; 0.1250 kg/ha,7.0
same,Herbicidal rating SAGPY,[2]; 0.2500 kg/ha,9.0
same,Herbicidal rating MOOVA,MOOVA (Monochoria); 0.0313 kg/ha,9.0
same,Herbicidal rating MOOVA,MOOVA (Monochoria); 0.0625 kg/ha,9.0
same,Herbicidal rating MOOVA,MOOVA (Monochoria); 0.1250 kg/ha,9.0
same,Herbicidal rating MOOVA,MOOVA (Monochoria); 0.2500 kg/ha,9.0
same,Preemergence herbicidal rating ABUTH,ABUTH (Velvetleaf); rate 0.0156 kg/ha,9.0
same,Preemergence herbicidal rating ABUTH,ABUTH (Velvetleaf); rate 0.0313 kg/ha,9.0
same,Preemergence herbicidal rating ABUTH,ABUTH (Velvetleaf); rate 0.0625 kg/ha,9.0
same,Preemergence herbicidal rating ABUTH,ABUTH (Velvetleaf); rate 0.1250 kg/ha,9.0
same,Preemergence herbicidal rating ABUTH,ABUTH (Velvetleaf); rate 0.2500 kg/ha,9.0
same,Postemergence herbicidal rating IPOHE,[3]; Rate 0.0158 kg/ha,9.0
same,Postemergence herbicidal rating IPOHE,[3]; Rate 0.0315 kg/ha,9.0
same,Postemergence herbicidal rating IPOHE,[3]; Rate 0.0630 kg/ha,9.0
same,Preemergence herbicidal rating ECHCG,ECHCG (Barnyardgrass); rate 0.0156 kg/ha,0.0
same,Preemergence herbicidal rating ECHCG,ECHCG (Barnyardgrass); rate 0.0313 kg/ha,0.0
same,Preemergence herbicidal rating ECHCG,ECHCG (Barnyardgrass); rate 0.0625 kg/ha,0.0
same,Preemergence herbicidal rating ECHCG,ECHCG (Barnyardgrass); rate 0.1250 kg/ha,0.0
same,Preemergence herbicidal rating ECHCG,ECHCG (Barnyardgrass); rate 0.2500 kg/ha,5.0
same,Herbicidal rating CYPIR,"CYPIR (Rice Flatsedge); rate 0.0313 kg/ha, 3-4 weeks after treatment",0.0
same,Herbicidal rating CYPIR,"CYPIR (Rice Flatsedge); rate 0.1250 kg/ha, 3-4 weeks after treatment",4.0
same,Herbicidal rating CYPIR,"CYPIR (Rice Flatsedge); rate 0.2500 kg/ha, 3-4 weeks after treatment",5.0
same,Preemergence herbicidal rating TRZAWR,[4]; rate 0.0156 kg/ha,0.0
same,Preemergence herbicidal rating TRZAWR,[4]; rate 0.0313 kg/ha,0.0
same,Preemergence herbicidal rating TRZAWR,[4]; rate 0.0625 kg/ha,0.0
same,Preemergence herbicidal rating TRZAWR,[4]; rate 0.1250 kg/ha,1.0
same,Preemergence herbicidal rating TRZAWR,[4]; rate 0.2500 kg/ha,4.0
same,Preemergence herbicidal rating GLXMAW,[5]; rate 0.0156 kg/ha,0.0
same,Preemergence herbicidal rating GLXMAW,[5]; rate 0.0313 kg/ha,0.0
same,Preemergence herbicidal rating GLXMAW,[5]; rate 0.0625 kg/ha,0.0
same,Preemergence herbicidal rating GLXMAW,[5]; rate 0.1250 kg/ha,0.0
same,Preemergence herbicidal rating GLXMAW,[5]; rate 0.2500 kg/ha,2.0
same,Preemergence herbicidal rating ZEAMX,"ZEAMX (Corn, Field); rate 0.0156 kg/ha",0.0
same,Preemergence herbicidal rating ZEAMX,"ZEAMX (Corn, Field); rate 0.0313 kg/ha",0.0
same,Preemergence herbicidal rating ZEAMX,"ZEAMX (Corn, Field); rate 0.0625 kg/ha",0.0
same,Preemergence herbicidal rating ZEAMX,"ZEAMX (Corn, Field); rate 0.1250 kg/ha",3.0
same,Preemergence herbicidal rating ZEAMX,"ZEAMX (Corn, Field); rate 0.2500 kg/ha",6.0
same,Preemergence herbicidal rating CASOB,CASOB (Sicklepod) [6]; rate 0.0156 kg/ha,0.0
same,Preemergence herbicidal rating CASOB,CASOB (Sicklepod) [6]; rate 0.0313 kg/ha,0.0
same,Preemergence herbicidal rating CASOB,CASOB (Sicklepod) [6]; rate 0.0625 kg/ha,0.0
same,Preemergence herbicidal rating CASOB,CASOB (Sicklepod) [6]; rate 0.1250 kg/ha,8.0
same,Preemergence herbicidal rating CASOB,CASOB (Sicklepod) [6]; rate 0.2500 kg/ha,9.0
same,Postemergence herbicidal rating AMBEL,"AMBEL (Ragweed, Common); Rate 0.0158 kg/ha",9.0
same,Postemergence herbicidal rating AMBEL,"AMBEL (Ragweed, Common); Rate 0.0315 kg/ha",9.0
same,Postemergence herbicidal rating AMBEL,"AMBEL (Ragweed, Common); Rate 0.0630 kg/ha",9.0
same,Preemergence herbicidal rating IPOHE,[7]; rate 0.0156 kg/ha,0.0
same,Preemergence herbicidal rating IPOHE,[7]; rate 0.0313 kg/ha,0.0
same,Preemergence herbicidal rating IPOHE,[7]; rate 0.0625 kg/ha,0.0
same,Preemergence herbicidal rating IPOHE,[7]; rate 0.1250 kg/ha,2.0
same,Preemergence herbicidal rating IPOHE,[7]; rate 0.2500 kg/ha,9.0
same,Postemergence herbicidal rating GALAP,GALAP (Galium); Rate 0.0158 kg/ha,0.0
same,Postemergence herbicidal rating GALAP,GALAP (Galium); Rate 0.0315 kg/ha,4.0
same,Postemergence herbicidal rating GALAP,GALAP (Galium); Rate 0.0630 kg/ha,4.0
"CN1C(=O)C(CC(=O)Nc2ccccc2)SC1=Nc1cc(-n2c(=O)cc(C(F)(F)F)n(C)c2=O)c(F)cc1Cl (stereo not drawn) [Compound 91, 2-{{2-Chloro-5-[3,6-dihydro-3-methyl-2,6-dioxo-4-(trifluoromethyl)-1(2H)-pyrimidinyl]-4-fluorophenyl}imino}-3-methyl-4-oxo-5-thiazolidineacetanilide]",CASOB herbicidal rating,CASOB (Sicklepod) [1]; rate 0.0158 kg/ha,0.0
same,CASOB herbicidal rating,CASOB (Sicklepod) [1]; rate 0.0315 kg/ha,0.0
same,CASOB herbicidal rating,CASOB (Sicklepod) [1]; rate 0.0630 kg/ha,4.0
same,SAGPY herbicidal effect rating,[2]; 0.0313 kg/ha,0.0
same,SAGPY herbicidal effect rating,[2]; 0.0625 kg/ha,0.0
same,SAGPY herbicidal effect rating,[2]; 0.1250 kg/ha,0.0
same,SAGPY herbicidal effect rating,[2]; 0.2500 kg/ha,0.0
same,MOOVA herbicidal effect rating,MOOVA (Monochoria); 0.0313 kg/ha,9.0
same,MOOVA herbicidal effect rating,MOOVA (Monochoria); 0.0625 kg/ha,9.0
same,MOOVA herbicidal effect rating,MOOVA (Monochoria); 0.1250 kg/ha,9.0
same,MOOVA herbicidal effect rating,MOOVA (Monochoria); 0.2500 kg/ha,9.0
same,ABUTH rating,ABUTH (Velvetleaf); 0.1250 kg/ha,4.0
same,ABUTH rating,ABUTH (Velvetleaf); 0.2500 kg/ha,9.0
same,IPOHE herbicidal rating,[3]; rate 0.0158 kg/ha,7.0
same,IPOHE herbicidal rating,[3]; rate 0.0315 kg/ha,9.0
same,IPOHE herbicidal rating,[3]; rate 0.0630 kg/ha,9.0
same,ECHCG rating,ECHCG (Barnyardgrass); 0.1250 kg/ha,0.0
same,ECHCG rating,ECHCG (Barnyardgrass); 0.2500 kg/ha,0.0
same,Herbicidal rating CYPIR,"CYPIR (Rice Flatsedge); Rate 0.0313 kg/ha, rated 3 to 4 weeks after treatment",0.0
same,Herbicidal rating CYPIR,"CYPIR (Rice Flatsedge); Rate 0.0625 kg/ha, rated 3 to 4 weeks after treatment",0.0
same,Herbicidal rating CYPIR,"CYPIR (Rice Flatsedge); Rate 0.1250 kg/ha, rated 3 to 4 weeks after treatment",0.0
same,Herbicidal rating CYPIR,"CYPIR (Rice Flatsedge); Rate 0.2500 kg/ha, rated 3 to 4 weeks after treatment",0.0
same,TRZAWR rating,[4]; 0.1250 kg/ha,0.0
same,TRZAWR rating,[4]; 0.2500 kg/ha,0.0
same,GLXMAW rating,[5]; 0.1250 kg/ha,0.0
same,GLXMAW rating,[5]; 0.2500 kg/ha,0.0
same,ZEAMX rating,"ZEAMX (Corn, Field); 0.1250 kg/ha",0.0
same,ZEAMX rating,"ZEAMX (Corn, Field); 0.2500 kg/ha",0.0
same,CASOB rating,CASOB (Sicklepod) [6]; 0.1250 kg/ha,0.0
same,CASOB rating,CASOB (Sicklepod) [6]; 0.2500 kg/ha,0.0
same,AMBEL herbicidal rating,"AMBEL (Ragweed, Common); rate 0.0158 kg/ha",0.0
same,AMBEL herbicidal rating,"AMBEL (Ragweed, Common); rate 0.0315 kg/ha",0.0
same,AMBEL herbicidal rating,"AMBEL (Ragweed, Common); rate 0.0630 kg/ha",4.0
same,IPOHE rating,[7]; 0.1250 kg/ha,0.0
same,IPOHE rating,[7]; 0.2500 kg/ha,0.0
same,GALAP herbicidal rating,GALAP (Galium); rate 0.0158 kg/ha,0.0
same,GALAP herbicidal rating,GALAP (Galium); rate 0.0315 kg/ha,0.0
same,GALAP herbicidal rating,GALAP (Galium); rate 0.0630 kg/ha,0.0
